Measurements taken from patent publication US9066516B2, “Uses of thaxtomin and thaxtomin compositions as herbicides” (priority 2008, dated 2015).
Where two headings read alike, the source gives them in different places.

Columns and labels:
Format in all cases: in vivo
crabgrass [1] = assay: Crabgrass seed germination, MBI-005 + m-Tyrosine (Example 15); details: 7 DAT; for AVG No. germinated: forty-five seeds
Procedure: Forty-five seeds were placed on a ring of blotter paper inside a 3 cm petri dish, covered with 10 cm^3 of inert baked clay particle media and supplied with 7 ml of 0.035 mg/ml MBI-005, a m-Tyrosine concentration, or a combination of MBI-005 and m-Tyrosine (Table 14). Water was used as a negative control. Petri dishes were randomly placed in a growth room at 25° C. and 50% RH. Treatments were replicated three times and germinated seeds were counted 7 days after application; water was added as necessary to maintain moisture levels inside each petri dish.
Synergy was calculated as the ratio of observed (E) to expected (E/Ee) reduction in germination using Colby's formula.

barnyard grass [2] = assay: Greenhouse synergy test MBI-005 + commercial herbicides (Example 11); details: 14 days
Procedure: (§1) The test species barnyard grass, ragweed, sedge, and broad-leaf mustard were used for the valuation of synergy between MBI-005 and the rice herbicides clomazone, penoxsulam, cyhalofop, fenoxaprop-p-ethyl, bispyribac-sodium, thiobencarb, and propanil.
(§2) There were 3 replicates per treatment which were sprayed with approximately ⅔ ml per replicate. The treatments were completely randomized and kept in a greenhouse at 25° C. The efficacy was rated at 7 and 14 days post treatment.

sedge = assay: as above; details: 14 days
Procedure: as §1, §2

broad-leaf mustard = assay: as above; details: 14 days
Procedure: as §1, §2

[3] = tested on: small flower umbrella sedge; assay: Post-emergent MBI-005 + rice herbicides on smallflower umbrella sedge (Example 19); details: 14 days
Procedure: Twenty seedlings in 2.5 cm square pots containing plant growth mix were sprayed to full coverage using a hand sprayer. Negative controls were sprayed with water. Pots were randomly placed in a growth room at 25° C. and 50% RH, and watered as necessary. Treatments were replicated three times and evaluated at 7 and 14 days for visual % damage, with 0% indicating no damage and 100% indicating plant death.
(§3) Synergy was calculated as the ratio of observed (E) to expected (E/Ee) percent control using Colby's formula.

[4] = tested on: Smallflower umbrella sedge; assay: Post-emergent MBI-005 + Thiobencarb on Smallflower umbrella sedge (Example 21); details: post-emergence, 336 h, 14 days, read-out: Observed Average % Efficacy (E)
Procedure: […] Negative controls were sprayed with water. Pots were randomly placed in a growth room at 25° C. and 50% RH, and watered as necessary. Treatments were replicated three times and evaluated at 7 and 14 days for visual % damage, with 0% indicating no damage and 100% indicating plant death.
as §3

plantain = assay: Greenhouse synergy test MBI-005 + turf herbicides (Example 11); details: 14 days
Procedure: (§4) The common turf weeds dandelion and plantain were used in testing for synergy between MBI-005 and 2, 4- or dicamba, two common turf herbicides.
as §2

dandelion = assay: as above; details: 14 days
Procedure: as §4, §2

crabgrass [5] = assay: Post-emergent MBI-005 + Atrazine on crabgrass (Example 17); details: 35% Atrazine Label Rate
Procedure: Ten seedlings in 2.5 cm square pots containing plant growth mix were sprayed with two suboptimal rates of MBI-005, and 35% of the atrazine label rate (0.3 gallons/A), or a combination thereof, at a volume of 40 gal/A using a cabinet track sprayer. Negative controls were sprayed with water. Pots were randomly placed in a growth room at 25° C. and 50% RH, and watered as necessary. Treatments were replicated five times and evaluated at 7 and 14 days for visual % damage, with 0% indicating no damage and 100% indicating plant death.
as §3

ragweed = assay: Greenhouse synergy test MBI-005 + commercial herbicides (Example 11); details: 14 days
Procedure: as §1
(§5) […] other herbicides commonly used for field crops, glyphosate, glufosinate, synthetic version of bialaphos, and mesotrione were also tested for synergy with MBI-005 on crabgrass and ragweed.
as §2

crabgrass [6] = assay: Greenhouse synergy test MBI-005 + field crop herbicides (Example 11); details: 14 days
Procedure: as §5, §2

barnyard grass [7] = assay: Post-emergent MBI-005 + rice herbicides on barnyard grass (Example 18); details: 14 days
Procedure: Ten seedlings in 2.5 cm square pots containing plant growth mix were sprayed to full coverage using a hand sprayer. Negative controls were sprayed with water. Pots were randomly placed in a growth room at 25° C. and 50% RH, and watered as necessary. Treatments were replicated three times and evaluated at 7 and 14 days for visual % damage, with 0% indicating no damage and 100% indicating plant death.
Synergistic effect were noted between MBI-005 and all three rice herbicides, 14 days after treatment. Synergy was calculated as the ratio of observed (E) to expected (E/Ee) percent control using Colby's formula.

barnyard grass [8] = assay: Greenhouse spray test bialaphos + MBI-005 (Example 10)
Procedure: The MBI-005 and bialaphos were prepared at various concentrations either as single ingredients or in combination with bialaphos. The treatments were applied at approximately ⅔ ml per replicate with a hand-help spray nozzle to barnyard grass or sedge. There were 3 replicates per treatment which were randomized after spray and were kept in a greenhouse at 25° C. for evaluation of phytotoxicity (% control).

[9] = tested on: small-flower umbrella sedge; assay: Field study, 1-sq foot plots (Example 5); details: 14 days after treatment
Procedure: (§6) The combined effect of thaxtomin A and two commercial herbicides (Bipyribac-sodium formulated as Regiment and Lemongrass oil formulated as GreenMatch EX) on small-flower umbrella sedge and watergrass is tested in a field study using small (1-sq foot) plots. All single product treatments and tank mix combinations were sprayed at 57 gal per acre. Means in each column marked with the same letter in Table 2 are not statistically different from each other at p<0.05

watergrass = assay: Field study, 1-sq foot plots (Example 5); details: 14 days after treatment
Procedure: as §6

redstem; Ammania spp. = assay: Greenhouse study thaxtomin A / sarmentine (Example 9); details: 25 days after treatment
Procedure: (§7) A strain of S. acidiscabies was grown in oat bran broth for 5 days (25° C., 200 rpm). The whole cell broth was extracted using XAD resin, and the dried crude extract was resuspended in 4% ethanol and 0.2% non-ionic surfactant at a concentration of 10 mg/mL. The diluted extracts containing 0.2 and 0.4 mg thaxtomin A per mL were tested on three weed species (redstem; Ammania spp., smallflower umbrella sedge; Cyperus difformis and sprangletop: Leptochloa uninervia). Other treatments included sarmentine at 2.5 and 5.0 mg/mL, and a combination treatment containing 0.2 mg thaxtomin A and 2.5 mg sarmentine per mL. Each treatment was applied in three replicates. Treated plants were kept in a greenhouse under 12 h light/12 h dark conditions.

[10] = tested on: smallflower umbrella sedge; Cyperus difformis; assay: as above; details: 25 days after treatment
Procedure: as §7

[11] = tested on: sprangletop: Leptochloa uninervia; assay: as above; details: 25 days after treatment
Procedure: as §7

[12] = Bispyribac-sodium 13.3% v/v of label rate

SMILES: N[C@@H](Cc1cccc(O)c1)C(=O)O [M-tyrosine, m-Tyrosine]
- E (% controlled compared to UTC) (crabgrass [1]; .22 mg/mL M-tyrosine): 8.3%
- AVG No. germinated (crabgrass [1]; .22 mg/mL M-tyrosine): 40.7
- E (% controlled compared to UTC) (crabgrass [1]; .44 mg/mL M-tyrosine): 0.8%
- AVG No. germinated (crabgrass [1]; .44 mg/mL M-tyrosine): 44.0

SMILES: CCOC(=O)[C@@H](C)Oc1ccc(Oc2nc3ccc(Cl)cc3o2)cc1 [fenoxaprop-p-ethyl]
- % Control Product (barnyard grass [2]; fenoxaprop-p-ethyl 0.006 mg/mL): 91.7%
- % Control Product (sedge; fenoxaprop-p-ethyl 0.116 mg/mL): 0.0%
- % Control Product (broad-leaf mustard; fenoxaprop-p-ethyl 0.006 mg/mL): 0.0%

SMILES: CCN(CC)C(=O)SCc1ccc(Cl)cc1 [thiobencarb]
- % Control Product (barnyard grass [2]; thiobencarb 1.743 mg/mL): 41.7%
- % Control Product (sedge; thiobencarb 3.15 mg/mL): 58.3%
- % Control Product (broad-leaf mustard; thiobencarb 1.743 mg/mL): 10.0%
- % control AI ([3]; Thiobencarb 25% v/v of label rate): 41.7%
- Observed average % efficacy ([4]; first series, 25% Thiobencarb): 41.7%
- Observed average % efficacy ([4]; second series, 15% Thiobencarb): 25%

SMILES: COc1c(Cl)ccc(Cl)c1C(=O)O [dicamba, reference compound]
- % Control Product (plantain; dicamba 6.025 mg/mL): 50.0%
- % Control Product (dandelion; dicamba 0.121 mg/mL): 45.8%

SMILES: CCNc1nc(Cl)nc(NC(C)C)n1 [Atrazine, reference compound]
- AVG E (visual % damage) (crabgrass [5]; 7DAT): 11.9%
- AVG/ E (visual % damage) (crabgrass [5]; 14DAT): 8.8%

SMILES: CS(=O)(=O)c1ccc(C(=O)C2C(=O)CCCC2=O)c([N+](=O)[O-])c1 [mesotrione]
- % Control Product (ragweed; mesotrione 0.96 mg/mL): 25.0%
- % Control Product (crabgrass [6]; mesotrione 0.24 mg/mL): 62.5%

SMILES: COc1cnc(OC)n2nc(NS(=O)(=O)c3c(OCC(F)F)cccc3C(F)(F)F)nc12 [penoxsulam]
- % Control Product (barnyard grass [2]; penoxsulam 0.051 mg/mL): 25.0%
- % Control Product (sedge; penoxsulam 0.047 mg/mL): 66.7%
- % control chemical AI (barnyard grass [7]; Penoxsulam 13.0 % v/v of label rate): 25.0%
- % control AI ([3]; Penoxsulam 13% v/v of label rate): 33.3%

SMILES: CP(=O)(O)CCC(N)C(=O)O (stereo not drawn) [glufosinate]
- % Control Product (ragweed; glufosinate 0.194 mg/mL): 22.5%
- % Control Product (crabgrass [6]; glufosinate 0.151 mg/mL): 83.3%

SMILES: CC1(C)CON(Cc2ccccc2Cl)C1=O [clomazone]
- % Control Product (barnyard grass [2]; clomazone 0.513 mg/mL): 37.5%
- % Control Product (sedge; clomazone 0.501 mg/mL): 0.0%
- % Control Product (broad-leaf mustard; clomazone 0.513 mg/mL): 25.0%
- % control chemical AI (barnyard grass [7]; Clomazone 13.3 % v/v of label rate): 37.50%
- % control AI ([3]; Clomazone 13% v/v of label rate): 0.0%

SMILES: O=C(O)COc1ccc(Cl)cc1Cl [2,4-D, reference compound]
- % Control Product (plantain; 2, 4-D 2.340 mg/mL): 50.0%
- % Control Product (dandelion; 2, 4-D 0.176 mg/mL): 25.0%

SMILES: C[C@H](NC(=O)[C@H](C)NC(=O)[C@@H](N)CCP(C)(=O)O)C(=O)O [Bialaphos]
- % Control (14 days) (barnyard grass [8]; Table 6, Bialaphos 0.089 mg/mL): 0.0 a %
- % Control (14 days) (barnyard grass [8]; Table 6, Bialaphos 0.178 mg/mL): 0.0 a %
- % Control (14 days) (barnyard grass [8]; Table 6, Bialaphos 0.356 mg/mL): 0.0 a %
- % Control (14 days) (barnyard grass [8]; Table 6, Bialaphos 0.534 mg/mL): 0.0 a %
- % Control (14 days) (barnyard grass [8]; Table 6, Bialaphos 0.712 mg/mL): 0.0 a %
- % Control (14 days) (barnyard grass [8]; Table 6, Bialaphos 0.890 mg/mL): 1.3 ab %
- % Control (14 days) (barnyard grass [8]; Table 6, Bialaphos 1.068 mg/mL): 5.0 abc %
- % Control (14 days) (barnyard grass [8]; Table 7, Bialaphos 0.18 mg/mL): 6.7 bc %
- % Control (14 days) (barnyard grass [8]; Table 7, Bialaphos 0.53 mg/mL): 3.3 ab %
- % Control (14 days) (barnyard grass [8]; Table 7, Bialaphos 1.07 mg/mL): 10.0 c %
- % Control (14 days) (barnyard grass [8]; Table 7, Bialaphos 1.07 mg/mL, listed as bialaphos): 10%
- % Control (7 days) (barnyard grass [8]; Table 8, Bialaphos 1.1 mg/mL): 5.0 ab %
- % Control (14 days) (barnyard grass [8]; Table 8, Bialaphos 1.1 mg/mL): 3.7 a %
- % Control (7 days) (barnyard grass [8]; Table 8, Bialaphos 1.4 mg/mL): 10.8 b %
- % Control (14 days) (barnyard grass [8]; Table 8, Bialaphos 1.4 mg/mL): 23.3 b %
- % Control (7 days) (barnyard grass [8]; Table 8, Bialaphos 1.8 mg/mL): 62.5 c %
- % Control (14 days) (barnyard grass [8]; Table 8, Bialaphos 1.8 mg/mL): 66.7 c %

SMILES: COc1cc(OC)nc(Oc2cccc(Oc3nc(OC)cc(OC)n3)c2C(=O)O)n1 [Bispyribac-sodium]
- % Control Product (barnyard grass [2]; bispyribac-sodium 0.032 mg/mL): 0.0%
- % Control Product (broad-leaf mustard; bispyribac-sodium 0.0216 mg/mL): 53.3%
- % control chemical AI (barnyard grass [7]; [12]): 6.7%
- % Control Product (ragweed; bispyribac-sodium 0.0216 mg/mL): 5.0%
- % control AI [3, 12]: 37.5%
- Sedge control (%) ([9]; Bispyribac-sodium 12 g/acre): 87.5a %
- Sedge control (%) ([9]; Bispyribac-sodium ½ (6 g/acre)): 47.5c %
- Watergrass control (%) (watergrass; Bispyribac-sodium 12 g/acre): 32.5a %
- Watergrass control (%) (watergrass; Bispyribac-sodium ½ (6 g/acre)): 15c %

SMILES: O=C(O)CNCP(=O)(O)O [glyphosate]
- % Control Product (ragweed; glyphosate 2.198 mg/mL): 15.0%
- % Control Product (crabgrass [6]; glyphosate 0.754 mg/mL): 45.8%

SMILES: CCCCC/C=C/C=C/C(=O)N1CCCC1 [Sarmentine]
- Control of redstem (%) (redstem; Ammania spp.; Sarmentine 2.5 mg/mL): 0a %
- Control of redstem (%) (redstem; Ammania spp.; Sarmentine 5.0 mg/mL): 2.5ab %
- Control of sedge (%) ([10]; Sarmentine 2.5 mg/mL): 8.3a %
- Control of sedge (%) ([10]; Sarmentine 5.0 mg/mL): 6.7a %
- Control of sprangletop (%) ([11]; Sarmentine 2.5 mg/mL): 80.0c %
- Control of sprangletop (%) ([11]; Sarmentine 5.0 mg/mL): 92.3d %
